Test results taken from patent publication US7718673B2, “Isonipecotamides for the treatment of integrin-mediated disorders” (Ortho-McNeil Pharmaceutical, Inc., priority 1999, dated 2010).

How the values were obtained:
[1] = target: T1, Human αvβ3 (Homo sapiens, UniProt P05106+P06756); assay: In vitro solid phase purified αvβ3 binding assay (vitronectin/αvβ3); details: vitronectin binding to immobilized αvβ3; read-out: αvβ3 IC50
T1 construct: purchased Chemicon International Inc., Temecula, Calif
T1 sequence (P06756 31-889 limits assumed): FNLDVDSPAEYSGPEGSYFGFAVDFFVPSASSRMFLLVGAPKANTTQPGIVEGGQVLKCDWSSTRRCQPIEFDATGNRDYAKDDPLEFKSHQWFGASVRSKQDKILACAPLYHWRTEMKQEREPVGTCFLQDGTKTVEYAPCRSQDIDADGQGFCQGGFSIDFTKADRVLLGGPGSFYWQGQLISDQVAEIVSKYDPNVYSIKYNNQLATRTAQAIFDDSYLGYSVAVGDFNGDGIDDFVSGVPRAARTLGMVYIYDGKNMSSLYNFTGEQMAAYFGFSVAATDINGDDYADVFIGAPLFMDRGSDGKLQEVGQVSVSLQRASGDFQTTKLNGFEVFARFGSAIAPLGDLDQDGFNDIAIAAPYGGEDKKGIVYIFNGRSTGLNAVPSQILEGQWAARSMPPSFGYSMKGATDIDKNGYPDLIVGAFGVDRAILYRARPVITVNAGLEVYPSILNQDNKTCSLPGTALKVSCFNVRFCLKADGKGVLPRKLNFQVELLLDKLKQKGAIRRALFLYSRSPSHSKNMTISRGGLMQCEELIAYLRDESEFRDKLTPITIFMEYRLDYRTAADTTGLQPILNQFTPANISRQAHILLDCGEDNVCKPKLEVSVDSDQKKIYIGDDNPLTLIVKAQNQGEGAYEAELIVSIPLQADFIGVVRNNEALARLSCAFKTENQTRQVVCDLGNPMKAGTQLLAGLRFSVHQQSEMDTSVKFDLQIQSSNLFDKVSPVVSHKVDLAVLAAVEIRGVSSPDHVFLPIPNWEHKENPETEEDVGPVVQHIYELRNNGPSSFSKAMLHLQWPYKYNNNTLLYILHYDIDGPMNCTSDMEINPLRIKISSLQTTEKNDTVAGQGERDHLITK
T1 sequence (P06756 891-1048 partner limits assumed): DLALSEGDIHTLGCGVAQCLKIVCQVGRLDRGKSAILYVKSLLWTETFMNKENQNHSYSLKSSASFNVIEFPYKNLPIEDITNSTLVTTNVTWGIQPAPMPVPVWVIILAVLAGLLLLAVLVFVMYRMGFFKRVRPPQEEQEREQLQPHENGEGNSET
T1 sequence (P05106 27-788): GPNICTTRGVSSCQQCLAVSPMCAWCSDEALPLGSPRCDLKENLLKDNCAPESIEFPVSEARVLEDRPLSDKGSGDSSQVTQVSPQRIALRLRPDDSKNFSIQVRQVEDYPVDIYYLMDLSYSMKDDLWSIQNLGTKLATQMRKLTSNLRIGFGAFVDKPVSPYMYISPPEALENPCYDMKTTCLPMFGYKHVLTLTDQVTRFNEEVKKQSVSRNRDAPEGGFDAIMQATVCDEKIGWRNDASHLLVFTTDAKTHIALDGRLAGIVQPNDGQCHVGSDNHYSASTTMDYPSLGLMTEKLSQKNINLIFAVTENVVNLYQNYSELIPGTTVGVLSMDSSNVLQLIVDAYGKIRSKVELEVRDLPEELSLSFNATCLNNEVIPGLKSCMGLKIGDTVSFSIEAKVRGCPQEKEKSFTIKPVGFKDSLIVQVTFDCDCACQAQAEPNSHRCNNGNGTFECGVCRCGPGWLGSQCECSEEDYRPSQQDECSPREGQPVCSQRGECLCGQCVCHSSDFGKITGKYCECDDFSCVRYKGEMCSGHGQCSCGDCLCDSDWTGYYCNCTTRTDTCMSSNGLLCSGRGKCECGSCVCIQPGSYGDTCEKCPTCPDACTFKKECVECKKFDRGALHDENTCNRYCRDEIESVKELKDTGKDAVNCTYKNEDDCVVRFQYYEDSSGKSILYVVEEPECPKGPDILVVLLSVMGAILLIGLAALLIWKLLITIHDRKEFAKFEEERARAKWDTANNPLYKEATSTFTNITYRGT
Procedure: In Vitro Solid Phase Purified αvβ3 Binding Assay
The vitronectin/αvβ3 binding assay methods were derived from Mehta et al. (Biochem J. 1998, 330, 861). Human αvβ3 (Chemicon International Inc., Temecula, Calif.), at a concentration of 1 μg/ml dissolved in Tris buffer (20 mM Tris, 1 mM CaCl2, […], 10 μM MnCl2, 150 mM NaCl), was immobilized on Immulon 96 well plates (Dynex Technologies, Chantilly, Va.) overnight at 4° C. Plates were washed and treated with blocking buffer (3% BSA in Tris buffer) for 2 h at 37° C. Plates were then rinsed 2 times with Tris buffer containing 0.3% BSA and 0.2% Tween20 (polyoxyethylenesorbitan monolaurate). Five minutes prior to the addition of 5 nM vitronectin (Sigma, St. Louis, Mo.), synthesized compounds were added to wells in duplicate. Each plate included c-RGDfV as an internal control. Following a 3 hour incubation at 37° C., plates were washed 5 times in assay buffer. An anti-human vitronectin IgG rabbit polyclonal antibody (Calbiochem, San Diego, Calif.) was added (1:2000) and plates were incubated for 1 hour at room temperature. VectaStain ABC peroxidase kit reagents (Vector Laboratories, Burlingame, Calif.) employing a biotin labeled anti-rabbit IgG, were utilized for detection of bound antibody. Plates were read at 490 nm on a Molecular Devices (Sunnyvale, Calif.) microplate reader.

[2] = target: RGD-affinity purified GPIIb/IIIa (Homo sapiens, UniProt P05106+P08514); assay: In vitro solid phase purified GPIIb/IIIa binding assay (biotinylated fibrinogen); details: fibrinogen binding to immobilized GPIIb/IIIa; read-out: IIb/IIIa IC50
Sequence of RGD-affinity purified GPIIb/IIIa (P08514 32-887 limits assumed): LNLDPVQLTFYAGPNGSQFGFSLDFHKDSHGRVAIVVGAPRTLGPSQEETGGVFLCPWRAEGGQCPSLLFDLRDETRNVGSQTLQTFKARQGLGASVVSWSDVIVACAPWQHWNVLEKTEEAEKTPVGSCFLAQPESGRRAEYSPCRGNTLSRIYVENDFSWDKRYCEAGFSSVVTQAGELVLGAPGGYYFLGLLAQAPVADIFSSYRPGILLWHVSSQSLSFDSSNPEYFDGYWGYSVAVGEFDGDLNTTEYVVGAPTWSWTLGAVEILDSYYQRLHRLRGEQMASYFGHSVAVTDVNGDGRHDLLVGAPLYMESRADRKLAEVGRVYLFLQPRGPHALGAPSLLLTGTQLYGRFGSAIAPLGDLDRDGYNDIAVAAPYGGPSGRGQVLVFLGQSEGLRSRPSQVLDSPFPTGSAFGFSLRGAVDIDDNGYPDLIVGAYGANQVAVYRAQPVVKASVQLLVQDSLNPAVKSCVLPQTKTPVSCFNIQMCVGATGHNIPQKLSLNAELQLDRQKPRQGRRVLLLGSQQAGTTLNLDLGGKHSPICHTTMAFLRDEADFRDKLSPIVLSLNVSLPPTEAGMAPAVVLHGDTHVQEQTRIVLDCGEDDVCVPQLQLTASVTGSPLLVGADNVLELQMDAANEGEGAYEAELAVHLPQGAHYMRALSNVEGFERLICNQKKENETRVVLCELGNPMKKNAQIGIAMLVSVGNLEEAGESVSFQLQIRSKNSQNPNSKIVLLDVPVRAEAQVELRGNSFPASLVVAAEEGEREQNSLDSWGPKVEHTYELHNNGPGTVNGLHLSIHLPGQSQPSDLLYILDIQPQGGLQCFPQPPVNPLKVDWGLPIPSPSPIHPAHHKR
Sequence of RGD-affinity purified GPIIb/IIIa (P08514 891-1039 partner limits assumed): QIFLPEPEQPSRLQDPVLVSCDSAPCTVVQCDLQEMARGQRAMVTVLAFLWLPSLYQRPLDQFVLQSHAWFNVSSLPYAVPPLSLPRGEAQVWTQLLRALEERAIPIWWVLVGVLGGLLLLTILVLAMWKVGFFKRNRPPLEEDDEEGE
Sequence of RGD-affinity purified GPIIb/IIIa (P05106 27-788): as the sequence (P05106 27-788) above
Procedure: In Vitro Solid Phase Purified GP IIB/IIIA Binding Assay
The plate was covered and incubated overnight at 4° C. The GPIIb/IIIa solution was discarded and 150 μl of 5% BSA was added and incubated at RT for 1-3 h. The plate was washed extensively with modified Tyrodes buffer. Biotinylated fibrinogen (25 μl/well) at 2× final concentration was added to the wells that contain the test compounds (25 μl/well). The plate was covered and incubated at RT for 2-4 h. Twenty minutes prior to incubation completion, one drop of Reagent A (VectaStain ABC Horse Radish Peroxidase kit, Vector Laboratories, Inc.) and one drop Reagent B were added with mixing to 5 mL modified Tyrodes buffer mix and let stand. The ligand solution was discarded and the plate washed (5×200 μl/well) with modified Tyrodes buffer. Vecta Stain HRP-Biotin-Avidin reagent (50 μl/well, as prepared above) was added and incubated at RT for 15 min. The Vecta Stain solution was discarded and the wells washed (5×200 μl/well) with modified Tyrodes buffer. Developing buffer (10 mL of 50 mM citrate/phosphate buffer @ pH 5.3, 6 mg o-phenylenediamine, 6 μl 30% H2O2; 50 μl/well) was added and incubated at RT for 3-5 min, and then 2 NH2SO4 (50 μl/well) was added. The absorbance was read at 490 nm.

Compound | IC50 [1] [nM] | IC50 [2] [nM]
O=C(N[C@@H](CNC(=O)C1CCN(C(=O)[C@H]2C=C[C@@H](NC3=NCCN3)C2)CC1)C(=O)O)OCc1ccccc1 [Compound 17, 3-[[[1-[[(1R,4S)-4-[(4,5-dihydro-1H-imidazol-2-yl)amino]-2-cyclopenten-1-yl]carbonyl]-4-piperidinyl]carbonyl]amino]-N-[(phenylmethoxy)carbonyl]-L-alanine] | 380 | 5.4
O=C(N[C@@H](CNC(=O)C1CCN(C(=O)c2ccc(CNC3=NCCN3)cc2)CC1)C(=O)O)OCc1ccccc1 [Compound 53, 3-[[[1-[4-[[(4,5-dihydro-1H-imidazol-2-yl)amino]methyl]benzoyl]-4-piperidinyl]carbonyl]amino]-N-[(phenylmethoxy)carbonyl]-L-alanine] | 570 | 1.5
O=C(O)CC(NC(=O)C1CCN(C(=O)CCCNC2=NCCN2)CC1)c1cccc2ccccc12 (stereo not drawn) [Compound 36] | > 300 | 12000
O=C(O)CC(NC(=O)C1CCN(C(=O)CCCNC2=NCCN2)CC1)c1ccsc1 (stereo not drawn) [Compound 20] | 530 | 4900
O=C(O)CC(NC(=O)C1CCN(C(=O)CCc2nc3ccccc3[nH]2)CC1)c1cccc2ccccc12 (stereo not drawn) [Compound 15] | > 5000 | 17000
O=C(N[C@@H](CNC(=O)C1CCN(C(=O)CCc2nc3ccccc3[nH]2)CC1)C(=O)O)OCc1ccccc1 [Compound 8] | 550 | 1100
O=C(O)C[C@H](NC(=O)C1CCN(C(=O)CC2(CNC3=NCCN3)CCCCC2)CC1)c1ccc(Cl)nc1 [Compound 19] | 320 | 71
O=C(O)CC(NC(=O)C1CCN(C(=O)CCc2nc3ccccc3[nH]2)CC1)c1ccc2c(c1)OCCO2 (stereo not drawn) [Compound 13] | 10000 | 29000
NCCCC(=O)N1CCC(C(=O)NC[C@H](NC(=O)OCc2ccccc2)C(=O)O)CC1 [Compound 56] | > 5000 | 49
O=C(O)CC(NC(=O)C1CCN(C(=O)CCc2nc3ccccc3[nH]2)CC1)c1cnc2ccccc2c1 (stereo not drawn) [Compound 7] | 490 | 7900
O=C(N[C@@H](CNC(=O)C1CCN(C(=O)NCCCn2ccnc2)CC1)C(=O)O)OCc1ccccc1 [Compound 10] | > 50000 | 950
O=C(O)CC(NC(=O)C1CCN(C(=O)CCCNC2=NCCN2)CC1)c1ccc2ccccc2c1 (stereo not drawn) [Compound 37] | 290 | 1700
O=C(O)CC(NC(=O)C1CCN(C(=O)CCCNC2=NCCN2)CC1)c1ccc(F)c(F)c1 (stereo not drawn) [Compound 43] | 230 | 1300
O=C(N[C@@H](CNC(=O)C1CCN(C(=O)C2CCN(C3=NCCN3)CC2)CC1)C(=O)O)OCc1ccccc1 [Compound 11, 3-[[[1-[[1-(4,5-dihydro-1H-imidazol-2-yl)-4-piperidinyl]carbonyl]-4-piperidinyl]carbonyl]amino]-N-[(phenylmethoxy)carbonyl]-L-alanine] | 1300 | 2.6
COC(=O)[C@H](CNC(=O)C1CCN(C(=O)CCCNC2=NCCN2)CC1)NC(=O)OCc1ccccc1 [Compound 42] | 170 | 140
Cc1cccc(C(CC(=O)O)NC(=O)C2CCN(C(=O)CCCNC3=NCCN3)CC2)c1 (stereo not drawn) [Compound 22] | > 500 | 38000
O=C(O)CC(NC(=O)C1CCN(C(=O)CCCNc2ccccn2)CC1)c1ccc2c(c1)OCO2 (stereo not drawn) [Compound 62, β-[[[1-[1-oxo-4-(2-pyridinylamino)butyl]-4-piperidinyl]carbonyl]amino]-1,3-benzodioxole-5-propanoic acid] | > 500 | 380
O=C(N[C@H](CNC(=O)C1CCN(C(=O)CCCNC2=NCCS2)CC1)C(=O)O)OCc1ccccc1 [Compound 57] | 350 | 130
O=C(O)CC(NC(=O)C1CCN(C(=O)CCONC2=NCCN2)CC1)c1ccc2c(c1)OCO2 (stereo not drawn) [Compound 61, β-[[[1-[3-[[(4,5-dihydro-1H-imidazol-2-yl)amino]oxy]-1-oxopropyl]-4-piperidinyl]carbonyl]amino]-1,3-benzodioxole-5-propanoic acid] | 180 | 2700

Now those with a lower IC50 [1], led by results:

IC50 [1] [nM] | IC50 [2] [nM] | Compound
50 | 9.2 | O=C(N[C@@H](CNC(=O)C1CCN(C(=O)[C@@H]2C=C[C@H](NC3=NCCN3)C2)CC1)C(=O)O)OCc1ccccc1 [Compound 14, 3-[[[1-[[(1S,4R)-4-[(4,5-dihydro-1H-imidazol-2-yl)amino]-2-cyclopenten-1-yl]carbonyl]-4-piperidinyl]carbonyl]amino]-N-[(phenylmethoxy)carbonyl]-L-alanine]
160 | 510 | O=C(NCCCC(=O)N1CCC(C(=O)NC[C@H](NC(=O)OCc2ccccc2)C(=O)O)CC1)NCc1ccccc1 [Compound 59]
15 | 23 | CC(CNC1=NCCN1)C(=O)N1CCC(C(=O)N[C@@H](CC(=O)O)c2cnc3ccccc3c2)CC1 (stereo partly drawn) [Compound 5, β-[[[1-[3-[(4,5-dihydro-1H-imidazol-2-yl)amino]-2-methyl-1-oxopropyl]-4-piperidinyl]carbonyl]amino]-, (β^3S)-3-quinolinepropanoic acid]
20 | 14 | O=C(N[C@@H](CNC(=O)C1CCN(C(=O)CCNC2=NCCN2)CC1)C(=O)O)OCc1ccccc1 [Compound 12]
120 | 1800 | O=C(O)CC(NC(=O)C1CCN(C(=O)CCCNC2=NCCN2)CC1)c1cc(Cl)cc(Cl)c1 (stereo not drawn) [Compound 26]
19 | 1800 | O=C(O)C[C@H](NC(=O)C1CCN(C(=O)CCCNC2=NCCN2)CC1)c1cccnc1 [Compound 33]
8.2 | 1500 | O=C(N[C@@H](CNC(=O)C1CCN(C(=O)OCCNC2=NCCN2)CC1)C(=O)O)OCc1ccccc1 [Compound 28, 4-[[[(2S)-2-carboxy-2-[[(phenylmethoxy)carbonyl]amino]ethyl]amino]carbonyl]-, 2-[(4,5-dihydro-1H-imidazol-2-yl)amino]ethyl ester 1-piperidinecarboxylic acid]
72 | 13 | CC(CNC1=NCCN1)CC(=O)N1CCC(C(=O)NC[C@H](NC(=O)OCc2ccccc2)C(=O)O)CC1 (stereo partly drawn) [Compound 54]
2.3 | 36 | O=C(O)C[C@H](NC(=O)C1CCN(C(=O)OCCNC2=NCCN2)CC1)c1cnc2ccccc2c1 [Compound 39, β-[[[1-[[2-[(4,5-dihydro-1H-imidazol-2-yl)amino]ethoxy]carbonyl]-4-piperidinyl]carbonyl]amino]-, (β^3S)-3-quinolinepropanoic acid]
12 | 26 | O=C(N[C@@H](CNC(=O)C1CCN(C(=O)/C=C/CNC2=NCCN2)CC1)C(=O)O)OCc1ccccc1 [Compound 55]
29 | 4200 | O=C(O)CC(NC(=O)C1CCN(C(=O)OCCNC2=NCCN2)CC1)c1cccnc1 (stereo not drawn) [Compound 31]
23 | 410 | O=C(O)CC(NC(=O)C1CCN(C(=O)CCCNC2=NCCN2)CC1)c1ccc2c(c1)OCO2 (stereo not drawn) [Compound 21]
28 | 130 | O=C(O)C[C@H](NC(=O)C1CCN(C(=O)CCCNC2=NCCN2)CC1)c1ccc(Cl)nc1 [Compound 3, 6-chloro-β-[[[1-[4-[(4,5-dihydro-1H-imidazol-2-yl)amino]-1-oxobutyl]-4-piperidinyl]carbonyl]amino]-, (β^3S)-3-pyridinepropanoic acid]
12 | 1100 | O=C(O)C[C@H](NC(=O)C1CCN(C(=O)OCCNC2=NCCN2)CC1)c1cccnc1 [Compound 40]
140 | 1600 | O=C(O)CC(NC(=O)C1CCN(C(=O)OCCNC2=NCCN2)CC1)c1cc(F)cc(F)c1 (stereo not drawn) [Compound 35]
50 | 15 | O=C(N[C@@H](CNC(=O)C1CCN(C(=O)CC(CNC2=NCCN2)c2ccc(Cl)cc2)CC1)C(=O)O)OCc1ccccc1 (stereo partly drawn) [Compound 18]
150 | 1700 | C[C@H](CC(=O)O)NC(=O)C1CCN(C(=O)CCCNC2=NCCN2)CC1 [Compound 4, 3-[[[1-[4-[(4,5-dihydro-1H-imidazol-2-yl)amino]-1-oxobutyl]-4-piperidinyl]carbonyl]amino]-, (3R)-butanoic acid]
